Tests used:
Conditions in all cases: 72 h
[1] = system: Caco-2; test: cell viability relative to DMSO; higher = less toxic
[2] = system: Calu-3; test: as above
[3] = system: HepG2; test: as above
[4] = system: U2OS; test: as above
[5] = system: Vero E6; test: as above
[6] = system: Caco-2; test: relative viability EC50 (midpoint between 100% and the lowest measured viability); higher = less toxic
[7] = system: Calu-3; test: as above
[8] = system: HepG2; test: as above
[9] = system: U2OS; test: as above
[10] = system: Vero E6; test: as above
[11] = system: Caco-2; test: drug sensitivity score (DSS) for viability; higher = more toxic; extreme values may be limits of the assay
[12] = system: Calu-3; test: as above
[13] = system: HepG2; test: as above
[14] = system: U2OS; test: as above
[15] = system: Vero E6; test: as above

Row | SMILES | cell viability ([1]; 1 nM) | cell viability ([1]; 10 nM) | cell viability ([1]; 100 nM) | cell viability ([1]; 1000 nM) | cell viability ([1]; 10000 nM) | cell viability ([2]; 1 nM) | cell viability ([2]; 10 nM) | cell viability ([2]; 100 nM) | cell viability ([2]; 1000 nM) | cell viability ([2]; 10000 nM) | cell viability ([3]; 1 nM) | cell viability ([3]; 10 nM) | cell viability ([3]; 100 nM) | cell viability ([3]; 1000 nM) | cell viability ([3]; 10000 nM) | cell viability ([4]; 1 nM) | cell viability ([4]; 10 nM) | cell viability ([4]; 100 nM) | cell viability ([4]; 1000 nM) | cell viability ([4]; 10000 nM) | cell viability ([5]; 1 nM) | cell viability ([5]; 10 nM) | cell viability ([5]; 100 nM) | cell viability ([5]; 1000 nM) | cell viability ([5]; 10000 nM) | relative viability EC50 [6] | relative viability EC50 [7] | relative viability EC50 [8] | relative viability EC50 [9] | relative viability EC50 [10] | drug sensitivity score [11] | drug sensitivity score [12] | drug sensitivity score [13] | drug sensitivity score [14] | drug sensitivity score [15]
1 | Cn1cc(C2=C(c3cn(CCCSC(=N)N)c4ccccc34)C(=O)NC2=O)c2ccccc21 [bisindolylmaleimide-IX] | 100% | 97.7% | 101% | 94.9% | 25.3% | 112% | 96.4% | 100% | 91.2% | 18.1% | 98.6% | 104% | 105% | 96.8% | 5.1% | 105% | 100% | 106% | 103% | 5.7% | 91.7% | 101% | 89.3% | 92.6% | 15% | 2.61 µM | 2.28 µM | 2.92 µM | 3.32 µM | 2.45 µM | 4.9 | 6 | 5.7 | 5 | 5.9
2 | CC(C)(C)OC(=O)c1ncn2c1[C@@H]1CCCN1C(=O)c1c(Br)cccc1-2 [bretazenil] | 94% | 93.9% | 99.3% | 96.1% | 100% | 90% | 92.9% | 98.2% | 99.8% | 96% | 83.1% | 94.1% | 95.2% | 105% | 103% | 98.2% | 98.8% | 105% | 92.6% | 98.2% | 91.1% | 100% | 95.5% | 96.5% | 104% | > 10 µM | > 10 µM | > 10 µM | > 10 µM | > 10 µM | 0 | 0 | 0 | 0 | 0
3 | CCC(C(=O)O)c1ccc(CC(C)C)cc1 (stereo not given) [butibufen] | 102% | 92.8% | 103% | 94.4% | 99.3% | 97.1% | 105% | 99.9% | 113% | 105% | 107% | 101% | 99% | 110% | 106% | 97.4% | 95.5% | 97.9% | 102% | 104% | 93.3% | 92.5% | 87.6% | 95.9% | 105% | > 10 µM | > 10 µM | > 10 µM | > 10 µM | > 10 µM | 0 | 0 | 0 | 0 | 0
4 | C[C@H](CS)C(=O)N1CCC[C@H]1C(=O)O [captopril] | 96.1% | 92.8% | 96.8% | 90.9% | 89.6% | 103% | 111% | 93.4% | 95.4% | 97.4% | 99.5% | 95.7% | 105% | 95.3% | 108% | 98.6% | 101% | 94.9% | 98% | 97.3% | 108% | 100% | 107% | 100% | 96.6% | > 10 µM | > 10 µM | > 10 µM | > 10 µM | > 10 µM | 0 | 0 | 0 | 0 | 0
5 | CC1(C)S[C@@H]2[C@H](NC(=O)C(C(=O)O)c3ccccc3)C(=O)N2[C@H]1C(=O)O (stereo not given in full) [carbenicillin] | 104% | 106% | 92.5% | 93.9% | 94.9% | 105% | 98.3% | 103% | 105% | 99.9% | 97.2% | 100% | 103% | 103% | 98% | 103% | 102% | 98.8% | 102% | 96% | 102% | 100% | 102% | 95.7% | 95.7% | > 10 µM | > 10 µM | > 10 µM | > 10 µM | > 10 µM | 0 | 0 | 0 | 0 | 0
6 | CC(C(=O)O)c1ccc2c(c1)[nH]c1ccc(Cl)cc12 (stereo not given) [carprofen] | 96.4% | 96.5% | 88.4% | 95.7% | 94.6% | 96.5% | 95.5% | 104% | 104% | 94% | 103% | 101% | 90.6% | 96.5% | 99.6% | 96.5% | 102% | 96.1% | 100% | 98.7% | 107% | 101% | 115% | 99.4% | 101% | > 10 µM | > 10 µM | > 10 µM | > 10 µM | > 10 µM | 0 | 0 | 0 | 0 | 0

Reference: the supplement of paper PMC13380429
